Data on 1 molecule can be found in patent US20070154540A1 (KMSI CO., LTD., priority 2003, published 2007).

Test [1] relates to chondrocytes isolated from the cartilage of New Zealand white rabbits. The test is described as follows: cells. It counts as cell-based. Conditions: Oryctolagus cuniculus, Chondrocyte, read-out: IC50 values for apigenin on chondrocytes. The procedure: During culturing, on Days 1, 2, 4 and 6, IC50 values were measured by a MTT assay based on cell viability.
Test [2] has as its system osteoarthritis-induced New Zealand white rabbits. The test is described as follows: Collagen levels in joint synovial fluids (Sirius Red staining). In kind it is in vivo. The text has this: (§1) To prepare an osteoarthritis animal model, New Zealand white rabbits underwent anterior cruciate ligament transection (ACLT) in joints of their two hind legs. After three days, the rabbits were forced to sustain movement for four weeks in a space of 5×5 m^3 to induce substantial osteoarthritis. […] The following Examples 3 to 10 were all performed using joints of the osteoarthritis-induced New Zealand white rabbits prepared as in this Example 2.
Total collagen levels in synovial fluids were measured by Sirius Red staining (Heide T. R. et al., Histochem. […]. Then, total collagen levels were determined by measuring absorbance at 550 nm. A standard curve was obtained by measuring absorbance at 550 nm for collagen type I (C1188, Sigma) of various concentrations of 0, 100, 200, 300, 400 and 500 μg. Using the standard curve, collagen levels in synovial fluids were determined.

For test [3] the test system is unchanged. As to the kind of experiment: Distribution and number of synovial cells. In kind it is in vivo. The method, then:
as §1
Tissues were prepared according to the same method as in Example 9 and evaluated for cell number and the condition of their surfaces. Cell number was measured at a site 120 μm in depth.

The test system of another test is RAW 264.7 cells. The test is described as follows: LPS-induced NO production of macrophages (Griess). It counts as cell-based, mice. Conditions: 16 hrs, LPS alone 40, non-treated 2. The procedure:
(§2) A macrophage cell line derived from mice, RAW 264.7 (KCLB 40071), was purchased from the Korean Cell Line Bank. RAW 264.7 cells were seeded in a density of 3×10^6 cells onto 60-mm culture dishes containing DMEM (Dulbecco's Modified Eagle Medium, 12800-017, Gibco) supplemented with 10% FBS (fetal bovine serum, 26140-079, Gibco), 100 U/ml of penicillin and 100 μg/ml streptomycin (15140-122, Gibco), and cultured at 37° C. under 5% CO2 and humidity for 24 hrs. To induce NO production, RAW 264.7 cells were treated with 500 ng/ml of an E. coli cell wall component, lipopolysaccharide (LPS, […], Sigma). […] Herein, LPS was dissolved in distilled water, and apigenin was dissolved in DMSO. Then, the culture medium and a Griess reagent were mixed at a ratio of 1:1 (100 μl: 100 μl) and allowed to stand at room temperature for 10 min. Thereafter, absorbance was measured at 540 nm using a spectrophotometer (Power Wave X340, Bio-Tek).
A general note: Nitrite, measured by Griess reagent, commonly stands in for NO production.

The test system of a further test is iNOS. The test is described as follows: Western blotting of iNOS expression in LPS-treated RAW 264.7. In kind it is cell-based, mice. Conditions: LPS treatment = 100%, upon apigenin treatment. The method, then: as §2, with “Bio-Tek). RAW 264.7 cells were treated under the same conditions as in Example 12. […] Herein, for IκBα expression, the cells were treated with LSP for only two hours. […] After protein concentrations in cell lysates were measured, […] protein samples were separated on an 8-16% SDS (sodium dodecyl sulfate) polyacrylamide gel (EC60452, NOVEX). […]” for “Bio-Tek).”
Background: In western blotting, separated proteins are transferred to a membrane and probed.

The test system of the next test is IκBα. The test is described as follows: Western blotting of IκBα expression in LPS-treated RAW 264.7. Conditions: normal = 100%, LPS (two hours) 18.56%, 10 μM of apigenin. In kind it is cell-based, mice. The method, then: as §2, with “Bio-Tek). RAW 264.7 cells were treated under the same conditions as in Example 12. […] Herein, for IκBα expression, the cells were treated with LSP for only two hours. […] After protein concentrations in cell lysates were measured, […] protein samples were separated on an 8-16% SDS (sodium dodecyl sulfate) polyacrylamide gel (EC60452, NOVEX). […]” for “Bio-Tek).”

In a further test the test system is cancer cells. As to conditions: background statement; cited from earlier work.

Where two headings read alike, the source gives them in different places.

Usually IC50 stands for the concentration that inhibits the measured activity by half. Consider `O=c1cc(-c2ccc(O)cc2)oc2cc(O)cc(O)c12` [apigenin, 4′,5,7-trihydroxyflavone], for which the IC50 in test [1] (24 h) is approximately 200 µM; in test [1] (48 h), approximately 100 µM; in test [1] (96 h), approximately 40 µM; in test [1] (144 h), approximately 30 µM. Further, the “Collagen levels in joint synovial fluids” value in test [2] (apigenin-treated right leg (+), four weeks after drug injection) is 406.56 µg/mL; in test [2] (apigenin-treated right leg (+), four weeks after drug injection, listed as Apigenin), 406.6 ± 0.63 µg/mL; in test [2] (apigenin-treated right leg (+), two weeks after drug injection) it was 397.4 ± 0.69 µg/mL; in test [2] (non-treated left leg (−) of apigenin treatment group, four weeks after drug injection), “about 1019.2 μg/ml”; in test [2] (non-treated left leg (−) of apigenin treatment group, four weeks after drug injection, listed as Apigenin), 1019.2 ± 0.79 µg/mL; in test [2] (non-treated left leg (−) of apigenin treatment group, two weeks after drug injection), 749.4 ± 0.46 µg/mL. In addition, the “decrease in synovial cell number compared to the control group” value in test [3] (after osteoarthritis induction) is given as “about 34.5%”. Further, in test [3] (after osteoarthritis induction, measured at a site 120 μm in depth, control group 632.3), the “number of synovial cells” value turned out to be 406.6. Besides, the “surface of synovial membrane section” value in test [3] (right leg, compared with control group treated with physiological saline) is “relatively smooth surface”. The Nitrite stood at 32.2 µM in the test on RAW 264.7 cells (LPS 500 ng/ml + apigenin 10 μM), 22.2 µM with RAW 264.7 cells (LPS 500 ng/ml + apigenin 20 μM), 10.1 µM in the test with RAW 264.7 cells (LPS 500 ng/ml + apigenin 40 μM) and 9 µM with RAW 264.7 cells (LPS 500 ng/ml + apigenin 80 μM). Moreover, the iNOS expression level in the test on iNOS was 0%. Also, the IκBα expression level in the test on IκBα is 75.82%. Besides, the “concentration at which apigenin acts effectively (anticancer activity)” value in the test with cancer cells is “lower than 50 μM”.
